According to US20240360186A1, “Treatment Of Integrin-Related Disorders With Stapled Peptides” (Institute For Cancer Research d/b/a The Research Institute …, priority 2021, published 2024):
Blank lines part the entries; values can stand above or below the molecule they belong to. Bridge positions count the residues as written; N and C are the ends. Square brackets hold non-standard residues; d marks the D form. Ends that are not written are not given here. Peptide text beside a SMILES is read from it. S5 = C=CCCC[C@](C)(N)C(=O)O

Experiments:
[1] = system: β3-THD (integrin β3-talin head domain fusion protein); test: GST pull-down, β3-THD chimera; type: binding; conditions: GST-fused peptide on glutathione beads, His-tagged talin protein, Western blot
Text: The interaction of the TBS segment of RIAM with the talin head domain is compatible with the integrin-β:talin interaction (see, Yang et al., Nat. Commun., 2014, 5, 5880). To test this proposed synergistic interaction, a chimeric protein was constructed by fusing a integrin 03 segment to talin head domain (β3-THD) and assessed its interaction with TBS. […] The T14E mutation in TBS is expected to generate anew salt-bridge interaction with talin through the Arg358 residue, which is essential for the interaction of talin and integrin-β3 (FIG. 2, Panel D; see Barsukov et al., J. Biol. Chem., 2003, 278, 31202-09).
Plasmid construction, protein purification, and GST pull-down: Talin R7R8, talin head domain, β3-THD chimera, and GST-TBS were expressed and purified as described previously described (see, Zhang et al., Proc. Natl. Acad. Sci. U.S.A., 2020, 117, 32402-12; and Chang et al., 2014). Point mutations were constructed using a site-directed mutagenesis method. […] The proteins were resolved by SDS-PAGE and detected by Coomassie staining or Western blotting. […] The blots were visualized with the SuperSignal West Pico Chemiluminescent Substrate (Thermo Scientific) and detected using the FluorChem E imager (ProteinSimple).

integrin αIIbβ3 [2] = test: Integrin activation assay, inactive talin head mutant THD-W359A; type: cell-based; conditions: CHO-A5 cells transfected with THD-W359A; TBS 100 μM, S-TBS 10 and 100 μM; PAC1 flow cytometry
Method: (§1) Assessing integrin activation: CHO-A5 cells were transfected with GFP-tagged talin-head domain (residues 1-430, WT or W359A) and incubated for 24 hours at 37° C. The cells were subsequently treated with WT-TBS at 100 μM or Staple-TBS (at 10 and 100 μM) for 30 minutes at 37° C. and washed twice with PBS, harvested in trypsin-EDTA, and centrifuged at 2,000 rpm for 5 minutes. The cells were incubated in Tyrode's buffer (136.9 mM NaCl, 10 mM HEPES, 5.5 mM glucose, 11.9 mM NaHCO3, 2.7 mM KCl, 0.5 mM CaCl2), 1.5 mM MgCl2, and 0.4 mM NaH2PO4, pH 7.4) containing PAC1 antibody for 1 hour at 30° C. and then stained with Alexa 647 (goat anti-mouse IgM) for 30 minutes at RT. The cells were quantified with an LSR flow cytometer using 30,000 cells per measurement.
(§2) The effect of S-TBS on talin-induced activation of integrin αIIbβ3 was examined. CHO-A5 cells that stably express integrin αIIbβ3 were transfected with a green fluorescent protein-tagged talin head domain, treated with S-TBS or TBS, and then subjected flow cytometry analysis for integrin αIIbβ3 activity. […]
(§3) Integrin activation assays: CHO-A5 cells were transfected with talin-head domain, wild-type or W359A, and incubated for 24 hours at 37° C. […] The cells were quantified with a Beckton, Dickenson & Co. Biosciences LSR flow cytometer (660/20 filter, 640 nm laser) using 30,000 cells per measurement.

HeLa cells = test: Cell toxicity assay, HeLa; type: cell-based; conditions: 40 μM, treated one hour then washed away, viability at 24 and 48 hours
Method: (§4) The cell toxicity of the peptides was then examined. HEK, MCF-7, and HeLa were used. Cells were treated with S-TBS 40 μm for one hour. The S-TBS was then washed away and the viability measured at 24 and 48 hours. No impact on HEK, MCF-7, and HeLa cell growth was observed.

HEK-293 cells = test: Cell toxicity assay, HEK-293; type: cell-based; conditions: 40 μM, treated one hour then washed away, viability at 24 and 48 hours
Method: as §4

CHO-A5 cells = test: Cell permeability assay (flow cytometry uptake of fluorophore-labelled peptide); type: in vitro ADME; conditions: CHO-A5 cells, lower doses, flow cytometry permeability index, fluorophore-labelled peptides
Method: Assessing membrane permeability: CHO-A5 cells were treated with FAM-labelled WT-TBS (1, 10, and 50 μM), or with FITC-labelled stapled-TBS (1, 10, and 50 μM), and incubated for 30 minutes at 37° C. The cells were washed twice with phosphate-buffered saline (PBS), harvested in trypsin-EDTA, and centrifuged at 2,000 rpm for 5 minutes. The cells were resuspended in PBS and quantified with an LSR flow cytometer using 30,000 cells per measurement.
A common challenge for peptidomimetic drugs that target intracellular proteins is the poor cell membrane permeability. To assess the effect of the C8 staple on cell permeability, FITC-labeled S-TBS were incubated with CHO cells at various concentration and examined S-TBS uptake by flow cytometry. […] The assay was then performed using lower doses of peptides and quantified the signals for statistical analyses. […] In contrast, TBS requires a concentration of at least 5 μM for cell uptake (FIG. 3, Panel B).
Cell permeability assay: CHO-A5 cells were plated in 6-well dishes, and then treated with fluorophore labeled TBS or S-TBS peptides at indicated concentrations for 30 minutes at 37° C. The cells were then washed twice with phosphate-buffered saline (PBS), detached by adding a mixture of trypsin and […] (“trypsin-EDTA”) and harvested by spinning at 2,000 rpm for 5 minutes. The cells were resuspended in PBS and quantified with an LSR flow cytometer (525/50 filter, 488 nm laser) using 30,000 cells per measurement.

MCF-7 cells = test: Cell toxicity assay, MCF-7; type: cell-based; conditions: 40 μM, treated one hour then washed away, viability at 24 and 48 hours
Method: as §4

integrin αIIbβ3 [3] = test: Integrin activation assay, wild-type talin head domain; type: cell-based; conditions: CHO-A5 cells expressing GFP-tagged wild-type talin head domain; TBS 100 μM, S-TBS 10 and 100 μM, 30 minutes; PAC1 flow cytometry
Method: as §1, §2, §3

[4] = target: T1, Talin head domain (residues 1-430) (UniProt P26039 1-430); test: fluorescence polarization; Kd of S-TBS against Kd of TBS
T1 construct: range 1-430; also called THD
Method: (§5) To assess the binding affinities of S-TBS with talin, the Kd of TBS and S-TBS peptides with talin rod R7R8 and talin head (residues 1-430) were measured using fluorophore-labeled peptides and recombinantly expressed, purified talin proteins by FP assays. […] This gain of affinity may be attributed to the C8 staple as it stabilizes the helical structure of TBS, and the enhanced hydrophobic interaction between S-TBS and talin rod. The enhanced binding of S-TBS to talin further validates the design strategy of using stapled peptides as a potent competitive inhibitor.
(§6) Fluorescent Polarization: Mixtures were prepared of purified talin proteins at a series concentration (R7R8: 0.2 μM to 20 μM; THD/b3-THD: 5 μM to 100 μM), or buffer only, with 20 nM FITC-labeled S-TBS (New England Peptide) in a buffer containing 20 mM HEPES, pH 7.5, 100 mM NaCl, and 2 mM DTT. After five minutes of incubation, 20 μl of the reaction mix was added to individual wells of a 384-well assay plate (Corning) and then measured fluorescence polarization at room temperature using a plate reader. A […] as emission polarization filters. FP signals were normalized against buffer-only background and then fit to a single-site (saturating) binding model using SigmaPlot (Systat Software).

Talin rod R7R8 domains [5] = target: T2, Talin rod R7R8 domains (UniProt P26039 1357-1653, limits assumed); test: as above
T2 construct: domain: R7R8; also called talin R7R8; talin rod double-domain R7R8
Method: as §5, §6

Talin rod R7R8 domains [6] = target: T2, Talin rod R7R8 domains; test: fluorescence polarization; fluorophore-labelled peptide titrated with talin R7R8
Method: as §5, §6

[7] = target: T1, Talin head domain (residues 1-430); test: fluorescence polarization; fluorophore-labelled peptide titrated with talin head (residues 1-430)
Method: as §5, §6

[8] = target: T1, Talin head domain (residues 1-430); test: fluorescence polarization; fluorophore-labelled peptide, purified talin protein titrated
Method: as §5, §6

Talin rod R7R8 domains [9] = target: T2, Talin rod R7R8 domains; test: as above
Method: as §5, §6

[10] = target: T1, Talin head domain (residues 1-430); test: fluorescence polarization, as the legend of FIG. 9 Panel B prints it (Table 2 prints 116)
Method: as §5, §6

T1 sequence (P26039 1-430 limits assumed): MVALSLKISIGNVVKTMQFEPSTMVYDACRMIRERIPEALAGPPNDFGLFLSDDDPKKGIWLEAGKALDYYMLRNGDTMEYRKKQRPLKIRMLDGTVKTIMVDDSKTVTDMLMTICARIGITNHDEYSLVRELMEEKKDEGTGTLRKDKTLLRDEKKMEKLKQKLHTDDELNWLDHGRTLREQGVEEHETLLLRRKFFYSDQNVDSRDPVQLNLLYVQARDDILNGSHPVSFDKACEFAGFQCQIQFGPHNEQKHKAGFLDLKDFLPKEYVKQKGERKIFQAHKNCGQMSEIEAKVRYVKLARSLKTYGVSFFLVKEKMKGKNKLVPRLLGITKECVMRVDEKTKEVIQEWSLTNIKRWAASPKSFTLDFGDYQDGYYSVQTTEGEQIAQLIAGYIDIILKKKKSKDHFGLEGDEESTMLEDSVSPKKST
T2 sequence (P26039 1357-1653 limits assumed): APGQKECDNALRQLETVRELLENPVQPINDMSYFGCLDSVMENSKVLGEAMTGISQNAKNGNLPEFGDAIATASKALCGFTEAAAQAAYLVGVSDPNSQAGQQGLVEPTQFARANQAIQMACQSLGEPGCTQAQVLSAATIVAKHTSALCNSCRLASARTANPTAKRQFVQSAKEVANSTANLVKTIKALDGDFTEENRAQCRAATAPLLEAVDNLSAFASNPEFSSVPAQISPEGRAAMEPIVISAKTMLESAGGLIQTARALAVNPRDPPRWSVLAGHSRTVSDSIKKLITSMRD

- concentration giving significant cell uptake (CHO-A5 cells): at least 5 μM
Molecule: CC[C@H](C)[C@H](NC(=O)[C@H](CC(=O)O)NC(=O)[C@H](CCC(=O)O)NC(=O)[C@@H](N)CC(N)=O)C(=O)N[C@@H](CC(=O)O)C(=O)N[C@@H](CCC(N)=O)C(=O)N[C@@H](CCSC)C(=O)N[C@@H](Cc1ccccc1)C(=O)N[C@@H](CO)C(=O)N[C@H](C(=O)N[C@@H](CC(C)C)C(=O)N[C@@H](CC(C)C)C(=O)NCC(=O)N[C@@H](CCC(=O)O)C(=O)N[C@@H](CCSC)C(=O)N[C@@H](CC(=O)O)C(=O)N[C@@H](CC(C)C)C(=O)N[C@@H](CC(C)C)C(=O)N[C@H](C(=O)N[C@@H](CCC(N)=O)C(=O)N[C@@H](CO)C(=O)O)[C@@H](C)O)[C@@H](C)O [TBS, reference compound] (H-NEDIDQMFSTLLGEMDLLTQS-OH; N-terminus and C-terminus assumed)
- interaction with β3-THD (pull-down) [1]: much more strongly than with THD alone
- integrin αIIbβ3 activity with inactive talin head THD-W359A (integrin αIIbβ3 [2]): No inhibitory effect
- cell toxicity (viability / cell growth), HeLa (HeLa cells): minimal cell toxicity
- cell toxicity (viability / cell growth), HEK (HEK-293 cells): minimal cell toxicity
- cell toxicity (viability / cell growth), MCF-7 (MCF-7 cells): minimal cell toxicity
- integrin αIIbβ3 activity (talin-induced activation) (integrin αIIbβ3 [3]): no inhibitory effect

- fold stronger binding than TBS [4]: 3.5 fold
- fold stronger binding than TBS (Talin rod R7R8 domains [5]): 6 fold
- EC50 (read off the curve) (Talin rod R7R8 domains [6]): ~2 µM
- EC50 (read off the curve) [7]: 10 to 20 µM
B1: S-TBS, stapled talin-binding site peptide (Stp(15,19))H2N-NEDIDQMFSTLLGE(S5)DLL(S5)QS-OH (peptide)
peptide: H-NEDIDQMFSTLLGE[S5]DLL[S5]QS-OH
modifications: staple 15-19; also: FITC label in some assays, site not given here
notes: X stands for the non-natural stapling residue (S5); also called stapled TBS; stapled-TBS

- Kd [8]: 116 µM
- Kd (Talin rod R7R8 domains [9]): 17.7 µM
- Kd [10]: 106 µM
B2: TBS peptide (unstapled talin-binding site peptide of RIAM) (peptide)
peptide: NEDIDQMFSTLLGEMDLLTQS
modifications: also: fluorescein (6-FAM) label in some assays
notes: also called WT-TBS; unstapled TBS
